According to patent publication US9963456B2, “Pyrrolopyrimidine compound or salt thereof and compositions containing the pyrrolopyrimidine compound or salt thereof” (TAIHO PHARMACEUTICAL CO., LTD., priority 2014, dated 2018):

Assays:
[1] = target: NAE (heterodimer of APPBP1 and UBA3) (Homo sapiens (Human), UniProt Q8TBC4); assay: Nedd8 conjugation inhibitory activity (AlphaScreen assay); format: biochemical; conditions: purified NAE, GST-UBC12, Biotin-Nedd8, ATP
carbonic anhydrase II = carbonic anhydrase II (Homo sapiens (Human), UniProt P00918); assay: Carbonic anhydrase II enzyme activity inhibition (4-NPA esterase activity); format: biochemical; conditions: 4-nitrophenyl acetate esterase activity, absorbance at 405 nm

Chain of NAE (heterodimer of APPBP1 and UBA3) (Q8TBC4 whole entry): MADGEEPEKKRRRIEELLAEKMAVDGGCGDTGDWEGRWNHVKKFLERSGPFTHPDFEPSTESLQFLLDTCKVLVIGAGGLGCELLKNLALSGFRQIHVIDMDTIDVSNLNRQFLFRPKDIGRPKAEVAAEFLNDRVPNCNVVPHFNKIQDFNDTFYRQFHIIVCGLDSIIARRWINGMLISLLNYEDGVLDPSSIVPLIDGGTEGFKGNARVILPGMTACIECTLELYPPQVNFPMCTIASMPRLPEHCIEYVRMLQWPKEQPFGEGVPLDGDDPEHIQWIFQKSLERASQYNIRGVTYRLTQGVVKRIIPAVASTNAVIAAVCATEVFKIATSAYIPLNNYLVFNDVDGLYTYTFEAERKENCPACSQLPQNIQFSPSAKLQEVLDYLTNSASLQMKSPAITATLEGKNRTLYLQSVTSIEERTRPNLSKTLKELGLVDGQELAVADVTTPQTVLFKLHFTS
Chain of NAE (heterodimer of APPBP1 and UBA3) (Q13564 whole entry partner): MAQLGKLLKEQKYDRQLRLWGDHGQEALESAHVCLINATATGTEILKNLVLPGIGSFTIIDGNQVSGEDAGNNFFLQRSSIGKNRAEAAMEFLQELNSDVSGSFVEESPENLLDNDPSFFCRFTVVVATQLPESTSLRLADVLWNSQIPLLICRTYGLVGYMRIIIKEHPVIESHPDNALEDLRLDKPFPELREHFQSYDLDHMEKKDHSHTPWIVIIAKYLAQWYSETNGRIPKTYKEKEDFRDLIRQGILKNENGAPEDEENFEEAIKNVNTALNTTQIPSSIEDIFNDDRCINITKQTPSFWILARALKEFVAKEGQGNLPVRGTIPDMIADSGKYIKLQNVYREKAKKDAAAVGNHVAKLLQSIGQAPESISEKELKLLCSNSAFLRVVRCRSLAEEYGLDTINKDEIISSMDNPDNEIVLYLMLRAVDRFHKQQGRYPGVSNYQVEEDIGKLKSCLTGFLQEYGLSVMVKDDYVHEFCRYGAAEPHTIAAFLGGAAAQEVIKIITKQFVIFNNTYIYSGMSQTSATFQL

| Compound | IC50 [1] [µM] | IC50 (carbonic anhydrase II) [µM] |
| --- | --- | --- |
| Cc1ccccc1-c1nc(-c2cn([C@@H]3O[C@H](CNS(N)(=O)=O)[C@@H](O)[C@H]3O)c3ncnc(N)c23)cs1 [Example 2, 4-[4-Amino-7-[(2R,3R,4S,5R)-3,4-dihydroxy-5-[(sulfamoylamino)methyl]tetrahydrofuran-2-yl]pyrrolo[2,3-d]pyrimidin-5-yl]-2-(o-tolyl)thiazole] | 0.0071 | > 1 |
| Nc1ncnc2c1c(C#CC1(c3ccccc3)CC1)cn2[C@@H]1O[C@H](CNS(N)(=O)=O)[C@@H](O)[C@H]1O [Example 10, 4-Amino-7-[(2R,3R,4S,5R)-3,4-dihydroxy-5-[(sulfamoylamino)methyl]tetrahydrofuran-2-yl]-5-[2-(1-phenylcyclopropyl)ethynyl]pyrrolo[2,3-d]pyrimidine] | 0.024 | > 1 |
| Nc1ncnc2c1c(C#Cc1ccccc1OC(F)(F)F)cn2[C@@H]1O[C@H](CNS(N)(=O)=O)[C@@H](O)[C@H]1O [Example 14, 4-Amino-7-[(2R,3R,4S,5R)-3,4-dihydroxy-5-[(sulfamoylamino)methyl]tetrahydrofuran-2-yl]-5-[2-[2-(trifluoromethoxy)phenyl]ethynyl]pyrrolo[2,3-d]pyrimidine] |  | > 1 |
| CNc1cc(F)c(C#Cc2cn([C@@H]3O[C@H](CNS(N)(=O)=O)[C@@H](O)[C@H]3O)c3ncnc(N)c23)c(F)c1 [Example 25, 4-Amino-5-[2-[2,6-difluoro-4-(methylamino)phenyl]ethynyl]-7-[(2R,3R,4S,5R)-3,4-dihydroxy-5-[(sulfamoylamino)methyl]tetrahydrofuran-2-yl]pyrrolo[2,3-d]pyrimidine] | 0.0048 | > 1 |
| Nc1ncnc2c1c(C#Cc1c(F)cc(N3CC[C@@H](F)C3)cc1F)cn2[C@@H]1O[C@H](CNS(N)(=O)=O)[C@@H](O)[C@H]1O [Example 29, 4-Amino-5-[2-[2,6-difluoro-4-[(3R)-3-fluoropyrrolidin-1-yl]phenyl]ethynyl]-7-[(2R,3R,4S,5R)-3,4-dihydroxy-5-[(sulfamoylamino)methyl]tetrahydrofuran-2-yl]pyrrolo[2,3-d]pyrimidine] | 0.0071 | > 1 |
| Nc1ncnc2c1c(C#CCc1ccccc1F)cn2[C@@H]1O[C@H](CNS(N)(=O)=O)[C@@H](O)[C@H]1O [Example 36, 4-Amino-7-[(2R,3R,4S,5R)-3,4-dihydroxy-5-[(sulfamoylamino)methyl]tetrahydrofuran-2-yl]-5-[3-(2-fluorophenyl)prop-1-ynyl]pyrrolo[2,3-d]pyrimidine] |  | > 1 |
| Nc1ncnc2c1c(C#Cc1c(F)cc(N3CC(O)C3)cc1F)cn2[C@@H]1O[C@H](CNS(N)(=O)=O)[C@@H](O)[C@H]1O [Example 39, 4-Amino-5-[2-[2,6-difluoro-4-(3-hydroxyazetidin-1-yl)phenyl]ethynyl]-7-[(2R,3R,4S,5R)-3,4-dihydroxy-5-[(sulfamoylamino)methyl]tetrahydrofuran-2-yl]pyrrolo[2,3-d]pyrimidine] |  | > 1 |
| Nc1ncnc2c1c(C#Cc1c(F)cc(N3CCC3)cc1F)cn2[C@@H]1O[C@H](CNS(N)(=O)=O)[C@@H](O)[C@H]1O [Example 43, 4-amino-5-[2-[4-(azetidin-1-yl)-2,6-difluoro-phenyl]ethynyl]-7-[(2R,3R,4S,5R)-3,4-dihydroxy-5-[(sulfamoylamino)methyl]tetrahydrofuran-2-yl]pyrrolo[2,3-d]pyrimidine] | 0.0076 | > 1 |
| Nc1ncnc2c1c(C#CCC1CCCCC1)cn2[C@@H]1O[C@H](CNS(N)(=O)=O)[C@@H](O)[C@H]1O [Example 50, 4-Amino-5-(3-cyclohexylprop-1-ynyl)-7-[(2R,3R,4S,5R)-3,4-dihydroxy-5-[(sulfamoylamino)methyl]tetrahydrofuran-2-yl]pyrrolo[2,3-d]pyrimidine] |  | > 1 |
| CCOc1cccc(F)c1C#Cc1cn([C@@H]2C=C(CNS(N)(=O)=O)[C@@H](O)[C@H]2O)c2ncnc(N)c12 [Example 129, 4-Amino-7-[(1R,4R,5S)-4,5-dihydroxy-3-[(sulfamoylamino)methyl]cyclopent-2-en-1-yl]-5-[2-(2-ethoxy-6-fluoro-phenyl)ethynyl]pyrrolo[2,3-d]pyrimidine] |  | > 1 |
